Test results: US11760751B2, “Benzo 2-azaspiro[4.4]nonane compound and use thereof” (HELIOEAST PHARMACEUTICAL CO., LTD., priority 2020, dated 2023)
Structures can show the parent of a compound that is named as a salt.

What was measured:
S1PR1 = target: T1, S1PR1 (Homo sapiens, UniProt P21453); test: In vitro S1PR1 agonistic activity, PathHunter cell line, chemiluminescent detection; format: cell-based; settings: for EC50: 90-180 min at 37° C.; for Emax: % activity vs maximum control ligand
T1 construct: expressed in transfected cells
T1 sequence (P21453 whole entry): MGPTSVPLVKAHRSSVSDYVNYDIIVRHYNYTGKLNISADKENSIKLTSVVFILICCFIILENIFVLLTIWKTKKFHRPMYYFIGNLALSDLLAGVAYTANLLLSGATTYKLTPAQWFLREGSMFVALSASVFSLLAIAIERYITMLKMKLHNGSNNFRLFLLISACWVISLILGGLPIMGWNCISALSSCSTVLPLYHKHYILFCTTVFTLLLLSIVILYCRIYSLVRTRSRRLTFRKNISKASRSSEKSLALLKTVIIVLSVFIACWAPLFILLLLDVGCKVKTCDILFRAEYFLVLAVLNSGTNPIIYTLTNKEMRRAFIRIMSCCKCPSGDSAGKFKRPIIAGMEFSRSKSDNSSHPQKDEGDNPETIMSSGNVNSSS
Method: Test Embodiment 1: In Vitro Evaluation of the Agonistic Activity of the Compounds of the Present Disclosure on S1PR1
Experimental objective: to detect the agonistic activity of compounds on S1PR1
I. Cell Treatment • 1. A PathHunter cell line was thawed according to standard procedures; • 2. the cells were inoculated in a 20 μL 384-well microplate and incubated at 37° C. for appropriate time.
II. Agonist • 1. For agonist determination, cells were incubated with samples to be tested to induce a reaction; • 2. a storage solution to be tested was 5-fold diluted into a buffer; • 3. 5 μL of the 5-fold dilution was added to the cells and incubated at 37° C. for 90-180 minutes. The vehicle concentration was 1%.
III. Signal Detection • 1. 12.5 μL or 15 μL of PathHunter detection reagent at a volume ratio of 50% was added at a time, and then incubated at room temperature for 1 hour to generate a detection signal; • 2. the microplate was read with a PerkinElmer Envision™ instrument for chemiluminescent signal detection.
IV. Data Analysis • 1. Activity analysis of the compound was carried out by using CBIS data analysis kit (ChemInnovation, CAA); • 2. calculation formula: % activity=100%×(average test sample RLU−average vehicle RLU)/(average maximum control ligand−average vehicle RLU)

[1] = Pharmacokinetic evaluation in CD-1 mice (intravenous and oral); format: in vivo; settings: male, mouse, plasma
Method: Test Embodiment 4: Pharmacokinetic Evaluation of Compound in Mice
Experimental objective: to test the pharmacokinetics of the compound in CD-1 mice
CD-1 mice (male, 20-40 g, 6-10 weeks old, Shanghai BK)
(§1) The standard protocol was used to test the pharmacokinetic characteristics of rodents after intravenous injection and oral administration of the compound. In the experiment, the candidate compound was prepared into a clear solution or a suspension, and administrated to two mice by single intravenous injection and oral administration. The vehicle for intravenous injection was a 5:95 DMSO and 10% hydroxypropyl β-cyclodextrin aqueous solution, and the vehicle for oral administration was a 0.5% w/v methylcellulose and 0.2% w/v tween 80 aqueous solution. Whole blood samples within 24 hours were collected, centrifuged at 3200 g for 10 minutes, and the supernatant was separated to obtain plasma samples. 4-fold volume of acetonitrile solution containing internal standard was added thereto to precipitate protein. The mixture was centrifuged, and the supernatant was taken, and an equal volume of water was added thereto. Then the mixture was centrifuged and the supernatant was taken for injection. The blood drug concentration was quantitatively analyzed by LC-MS/MS analysis method, and pharmacokinetic parameters, such as peak concentration, clearance rate, half-life, area under the drug-time curve and bioavailability, were calculated.

[2] = Pharmacokinetic evaluation in SD rats (intravenous and oral); format: in vivo; settings: male, Sprague-Dawley, plasma, SD rat; for Cmax / bioavailability: intravenous 1.0 mg/kg; for Cmax: oral 2.0 mg/kg (route of Cmax not stated), read-out: Peak concentration Cmax; for bioavailability: oral 2.0 mg/kg, read-out: Bioavailability F; for clearance / Vd: intravenous injection 1.0 mg/kg (oral 2.0 mg/kg); for clearance: read-out: Clearance rate CL; for Vd: read-out: Tissue distribution Vdss; for AUC(0-t) / half-life: oral administration 2.0 mg/kg; for AUC(0-t): read-out: Area under the drug-time curve AUC0-last PO; for half-life: read-out: Half-life T1/2 (PO) (converted)
Method: Test Embodiment 3: Pharmacokinetic Evaluation of Compound in Rats
Experimental objective: to test the pharmacokinetics of the compound in SD rats
Sprague Dawley rat (male, 200-300 g, 7-9 weeks old, Shanghai SLAC)
as §1, with “A standard” for “The standard”, “clear solution,” for “clear solution or a suspension,”, “to rats” for “to two mice”, “hydroxypropyl cyclodextrin” for “hydroxypropyl β-cyclodextrin”, “at 3000” for “at 3200”, “for 15” for “for 10”

SMILES | EC50 (S1PR1) | Emax (S1PR1) | other results
COCC(=O)N1CCC2(CCc3c(-c4noc(-c5ccc(OC(C)C)c(C#N)c5)n4)cccc32)C1 (stereo not drawn) [Compound 3] | 0.129 nM | 88.6% | 
CC(C)Oc1ccc(-c2nc(-c3cccc4c3CCC43CCN(C(=O)CC#N)C3)no2)cc1C#N (stereo not drawn) [Compound 4] | 0.107 nM | 99.4% | 
CC(C)Oc1ccc(-c2nc(-c3cccc4c3CCC43CCN(C(=O)CCC(=O)O)C3)no2)cc1C#N (stereo not drawn) [Compound 5] | 0.0688 nM | 85.1% | 
CC(C)Oc1ccc(-c2nc(-c3cccc4c3CCC43CCN(C(=O)CS(C)(=O)=O)C3)no2)cc1C#N (stereo not drawn) [Compound 7] | 0.123 nM | 90.7% | 
CC(C)Oc1ncc(-c2nc(-c3cccc4c3CCC43CCN(C(=O)CO)C3)no2)cc1C#N (stereo not drawn) [Compound 8] | 0.188 nM | 96.8% | Cmax ([1]; intravenous 0.5 mg/kg, oral 2.0 mg/kg (route of Cmax not stated), read-out: Peak concentration Cmax): 2280 ng/mL; bioavailability ([1]; intravenous 0.5 mg/kg, oral 2.0 mg/kg, read-out: Bioavailability F): 80.3%; clearance ([1]; intravenous injection 0.5 mg/kg (oral 2.0 mg/kg), read-out: Clearance rate CL): 3.58 mL/min/kg; Vd ([1]; intravenous injection 0.5 mg/kg (oral 2.0 mg/kg), read-out: Tissue distribution Vdss): 0.816 L/kg; AUC(0-t) ([1]; oral administration 2.0 mg/kg, read-out: Area under the drug-time curve AUC0-last PO): 16.3 µM·h; half-life ([1]; oral administration 2.0 mg/kg, read-out: Half-life T1/2 (PO) (converted)): 2.9 h
N#Cc1cc(-c2nc(-c3cccc4c3CCC43CCN(C(=O)CO)C3)no2)ccc1OC1CCCC1 (stereo not drawn) [Compound 9] | 2.15 nM | 75.8% | 
CC(C)Oc1ccc(-c2nc(-c3cccc4c3CCC43CCN(C(=O)CO)C3)no2)cc1Br (stereo not drawn) [Compound 10] | 1.31 nM | 101% | 
CC(C)Oc1ccc(-c2nc(-c3cccc4c3CCC43CCN(C(=O)CO)C3)no2)cc1Cl (stereo not drawn) [Compound 11] | 1.78 nM | 84.6% | 
CC(C)Oc1ccc(-c2nc(-c3cccc4c3CCC43CCN(C(=O)CO)C3)no2)cc1C(F)F (stereo not drawn) [Compound 12] | 0.477 nM | 87.6% | 
CC(C)Nc1ncc(-c2nc(-c3cccc4c3CCC43CCN(C(=O)CO)C3)no2)cc1C#N (stereo not drawn) [Compound 13] | 10.7 nM | 77.8% | 
CC(C)Oc1ccc(-c2ncc(-c3cccc4c3CCC43CCN(C(=O)CO)C3)s2)cc1C#N (stereo not drawn) [Compound 14] | 1.59 nM | 82.2% | 
CC(C)Oc1ccc(-c2nnc(-c3cccc4c3CCC43CCN(C(=O)CO)C3)s2)cc1C#N (stereo not drawn) [Compound 15] | 2.2 nM | 98.9% | 
CC(C)Oc1ccc(-c2nsc(-c3cccc4c3CCC43CCN(C(=O)CO)C3)n2)cc1C#N (stereo not drawn) [Compound 16] | 14.4 nM | 77.8% | 
N#Cc1cc(-c2nc(-c3cccc4c3CCC43CCN(C(=O)CO)C3)no2)ccc1OC(F)F (stereo not drawn) [Compound 17] | 8.59 nM | 80.8% | 
CC(C)Oc1ccc(-c2ncc(-c3cccc4c3CCC43CCN(C(=O)CO)C3)cn2)cc1C#N (stereo not drawn) [Compound 18] | 4.06 nM | 84.2% | 
CC(C)Oc1ccc(-c2cnc(-c3cccc4c3CCC43CCN(C(=O)CO)C3)cn2)cc1C#N (stereo not drawn) [Compound 19] | 3.25 nM | 77.8% | 
CC(C)Oc1ccc(-c2nc(-c3cccc4c3CCC43CCN(C(=O)CO)C3)ns2)cc1C#N (stereo not drawn) [Compound 20] | 9.39 nM | 90.4% | 

SMILES | EC50 (S1PR1) | Emax (S1PR1) | other results
CC(C)Oc1ccc(-c2ncc(-c3cccc4c3CCC43CCN(C(=O)CO)C3)o2)cc1C#N (stereo not drawn) [Compound 21] | 21.7 nM | 70.8% | 
COc1cc(-c2nc(-c3cccc4c3CCC43CCN(CC4(C(=O)O)CC4)C3)no2)cc(C2CCCC2)n1 (stereo not drawn) [Compound 40] | 2.82 nM | 102% | Cmax [2]: 357 ng/mL; bioavailability [2]: 63.9%; clearance [2]: 5.47 mL/min/kg; Vd [2]: 5.99 L/kg; AUC(0-t) [2]: 7.14 µM·h; half-life [2]: 8.83 h
CC(C)Oc1ccc(-c2nc(-c3cccc4c3CCC43CCN(C(=O)[C@@H](O)CO)C3)no2)cc1C#N (stereo partly drawn) [Compound 45] | 0.29 nM | 126% | Cmax [2]: 1180 ng/mL; bioavailability [2]: 59.2%; clearance [2]: 1.59 mL/min/kg; Vd [2]: 1.94 L/kg; AUC(0-t) [2]: 22.9 µM·h; half-life [2]: 13.2 h
CC(C)Oc1ccc(-c2nc(-c3cccc4c3CCC43CCN(C(=O)CN)C3)no2)cc1C#N (stereo not drawn) [Hydrochloride of compound 6] | 0.865 nM | 115% | 
CC(C)Oc1ccc(-c2nc(-c3cccc4c3CCC43CCN(CC4(C(=O)O)CCC4)C3)no2)cc1C#N (stereo not drawn) [Hydrochloride of compound 23] | 0.0353 nM | 68.3% | 
CC(C)Oc1ccc(-c2nc(-c3cccc4c3CCC43CCN(CC4(C(=O)O)CC4)C3)ns2)cc1C#N (stereo not drawn) [Hydrochloride of compound 24] | 4.99 nM | 87.1% | 
CC(C)Oc1ccc(-c2ncc(-c3cccc4c3CCC43CCN(CC4(C(=O)O)CC4)C3)cn2)cc1C#N (stereo not drawn) [Hydrochloride of compound 25] | 11.5 nM | 82.1% | 
CC(C)Oc1ccc(-c2ncc(-c3cccc4c3CCC43CCN(CC4(C(=O)O)CC4)C3)s2)cc1C#N (stereo not drawn) [Hydrochloride of compound 26] | 4.47 nM | 73.8% | 
CC(C)Oc1ccc(-c2ncc(-c3cccc4c3CCC43CCN(CC4(C(=O)O)CC4)C3)o2)cc1C#N (stereo not drawn) [Hydrochloride of compound 27] | 9.78 nM | 63.4% | 
CC(C)Oc1ccc(-c2nnc(-c3cccc4c3CCC43CCN(CC4(C(=O)O)CC4)C3)s2)cc1C#N (stereo not drawn) [Hydrochloride of compound 28] | 1.32 nM | 77.7% | 
O=C(O)C1(CN2CCC3(CCc4c(-c5noc(-c6ccc(C7CCCCC7)c(C(F)(F)F)c6)n5)cccc43)C2)CC1 (stereo not drawn) [Hydrochloride of compound 37] | 0.047 nM | 94.1% | 
O=C(O)C1(CN2CCC3(CCc4c(-c5noc(-c6ccc(C7CCCC7)c(C(F)(F)F)c6)n5)cccc43)C2)CC1 (stereo not drawn) [Hydrochloride of compound 38] | 0.041 nM | 100% | 
CC(C)Oc1ncc(-c2nc(-c3cccc4c3CCC43CCN(CC4(C(=O)O)CC4)C3)no2)cc1Cl (stereo not drawn) [Hydrochloride of compound 39] | 3.46 nM | 144% | 
CC(C)Oc1ccc(-c2nc(-c3cccc4c3CCC43CCN(CC4(C(=O)O)CC4)C3)no2)cc1C(F)(F)F (stereo not drawn) [Hydrochloride of compound 43] | 0.1 nM | 108% | 
CC(C)Oc1ccc(-c2nc(-c3cccc4c3CCC43CCN(C(=O)[C@H](O)CO)C3)no2)cc1C#N (stereo partly drawn) [Hydrochloride of compound 44] | 0.72 nM | 104% | 
CC(C)Cc1ccc(-c2nc(-c3cccc4c3CCC43CCN(CC4(C(=O)O)CC4)C3)no2)cc1 (stereo not drawn) [Hydrochloride of compound 46] | 5.76 nM | 105% | 
